The test system of experiment [1] is HCT-116. Description: Cytotoxicity against human HCT116 cells upto 150 uM by MTS assay. Format: functional, cell-based. A general note: Tetrazolium dyes change colour on reduction, which living cells bring about.
The subject of experiment [2] is HCT-116. Nature of the experiment: Cytotoxicity against human HCT116 cells by MTS assay. Format: functional, cell-based.

The source made the active and inactive calls. The calls are words filed in the database; no cut-off is given here.

The values that follow come from ChEMBL document CHEMBL1141249, “Lucentamycins A-D, cytotoxic peptides from the marine-derived actinomycete Nocardiopsis lucentensis” (J Nat Prod, 2007).

Take `C/C=C1\CN(C(=O)[C@H](CCCCNC(=N)N)NC(=O)C=C(C)C)[C@H](C(=O)N[C@@H](CC(C)C)C(=O)O)[C@@H]1C`: in experiment [1], the result was inactive.

As to `C/C=C1\CN(C(=O)[C@H](CCCCNC(=N)N)NC(=O)CC(C)C)[C@H](C(=O)N[C@@H](CC(C)C)C(=O)O)[C@@H]1C`, the result in experiment [1] was inactive.

For `C/C=C1\CN(C(=O)[C@H](CCCCNC(=N)N)NC(=O)c2ccccc2)[C@H](C(=O)N[C@@H](CC(C)C)C(=O)O)[C@@H]1C` [LUCENTAMYCIN A], the IC50 in experiment [2] turned out to be 0.2 µM.

For the molecule `C/C=C1/CN(C(=O)[C@H](CCCCNC(=N)N)NC(=O)CC(C)C)[C@H](C(=O)N[C@@H](Cc2c[nH]c3ccccc23)C(=O)O)[C@@H]1C` [LUCENTAMYCIN B], in experiment [2], the concentration for half-maximal inhibition (IC50) came out at 11 µM.

As a reminder, the IC50 is the concentration needed to halve the response being measured. Higher therefore signals weaker potency in that assay.
